Measurements reported in ChEMBL document CHEMBL6103546, “TRPM8 and TRPA1 ideal targets for treating cold-induced pain” (Eur J Med Chem, 2025).

Columns and labels:
[1] = biological target: T1, Transient receptor potential cation channel subfamily M member 8 (Homo sapiens, UniProt Q7Z2W7); assay: Antagonist activity at TRPM8 (unknown origin)
[2] = biological target: T1, Transient receptor potential cation channel subfamily M member 8; assay: Antagonist activity at human recombinant TRPM8 stably transfected in HEK293 cells assessed as inhibition of intracellular Ca2+ flux incubated for 60 mins by Fluo-4 dye based fluorescence assay; format: cell-based
[3] = biological target: T1, Transient receptor potential cation channel subfamily M member 8; assay: Antagonist activity at TRPM8 (unknown origin) in HEK293T cells; format: cell-based
[4] = biological target: T1, Transient receptor potential cation channel subfamily M member 8; assay: Antagonist activity at human TRPM8 expressed in HEK293 cells; format: cell-based
[5] = biological target: T2, Transient receptor potential cation channel subfamily A member 1 (Homo sapiens, UniProt O75762); assay: Antagonist activity at TRPA1 (unknown origin) expressed in HEK293 cells assessed as inhibition of AITC-induced intracellular Ca2+ flux by fluorescence dye based assay; format: cell-based
[6] = biological target: T2, Transient receptor potential cation channel subfamily A member 1; assay: Antagonist activity at human TRPA1 expressed in CHO cells assessed as inhibition of AITC-induced intracellular Ca2+ flux by fluorescence dye based assay; format: cell-based
[7] = biological target: Transient receptor potential cation channel subfamily M member 8 (Rattus norvegicus, UniProt Q8R455); assay: Antagonist activity at rat TRPM8 transfected in HEK293T cells assessed as reduction in intracellular Ca2+ level Fluo-4 dye based fluorescence assay; format: cell-based
[8] = biological target: T1, Transient receptor potential cation channel subfamily M member 8; assay: Antagonist activity at human TRPM8 transfected in HEK293T cells assessed as inhibition of intracellular Ca2+ level by Fluo-4 dye based fluorescence assay; format: cell-based
[9] = biological target: T1, Transient receptor potential cation channel subfamily M member 8; assay: Agonist activity at TRPM8 (unknown origin)
[10] = biological target: T2, Transient receptor potential cation channel subfamily A member 1; assay: […] at human TRPA1 expressed in HEK293T cells assessed as inhibition of AITC-induced current by whole cell patch clamp analysis; format: cell-based
[11] = biological target: T2, Transient receptor potential cation channel subfamily A member 1; assay: Antagonist activity at recombinant TRPA1 (unknown origin) expressed in T-REx-293 cells assessed as inhibition of AITC-induced intracellular Ca2+ flux by patch clamp assay; format: cell-based
[12] = biological target: T2, Transient receptor potential cation channel subfamily A member 1; assay: Antagonist activity at TRPA1 (unknown origin) transfected in HEK293F cells assessed as reduction in intracellular Ca2+ by fluorescence based assay; format: cell-based

T1 sequence (Q7Z2W7 whole entry): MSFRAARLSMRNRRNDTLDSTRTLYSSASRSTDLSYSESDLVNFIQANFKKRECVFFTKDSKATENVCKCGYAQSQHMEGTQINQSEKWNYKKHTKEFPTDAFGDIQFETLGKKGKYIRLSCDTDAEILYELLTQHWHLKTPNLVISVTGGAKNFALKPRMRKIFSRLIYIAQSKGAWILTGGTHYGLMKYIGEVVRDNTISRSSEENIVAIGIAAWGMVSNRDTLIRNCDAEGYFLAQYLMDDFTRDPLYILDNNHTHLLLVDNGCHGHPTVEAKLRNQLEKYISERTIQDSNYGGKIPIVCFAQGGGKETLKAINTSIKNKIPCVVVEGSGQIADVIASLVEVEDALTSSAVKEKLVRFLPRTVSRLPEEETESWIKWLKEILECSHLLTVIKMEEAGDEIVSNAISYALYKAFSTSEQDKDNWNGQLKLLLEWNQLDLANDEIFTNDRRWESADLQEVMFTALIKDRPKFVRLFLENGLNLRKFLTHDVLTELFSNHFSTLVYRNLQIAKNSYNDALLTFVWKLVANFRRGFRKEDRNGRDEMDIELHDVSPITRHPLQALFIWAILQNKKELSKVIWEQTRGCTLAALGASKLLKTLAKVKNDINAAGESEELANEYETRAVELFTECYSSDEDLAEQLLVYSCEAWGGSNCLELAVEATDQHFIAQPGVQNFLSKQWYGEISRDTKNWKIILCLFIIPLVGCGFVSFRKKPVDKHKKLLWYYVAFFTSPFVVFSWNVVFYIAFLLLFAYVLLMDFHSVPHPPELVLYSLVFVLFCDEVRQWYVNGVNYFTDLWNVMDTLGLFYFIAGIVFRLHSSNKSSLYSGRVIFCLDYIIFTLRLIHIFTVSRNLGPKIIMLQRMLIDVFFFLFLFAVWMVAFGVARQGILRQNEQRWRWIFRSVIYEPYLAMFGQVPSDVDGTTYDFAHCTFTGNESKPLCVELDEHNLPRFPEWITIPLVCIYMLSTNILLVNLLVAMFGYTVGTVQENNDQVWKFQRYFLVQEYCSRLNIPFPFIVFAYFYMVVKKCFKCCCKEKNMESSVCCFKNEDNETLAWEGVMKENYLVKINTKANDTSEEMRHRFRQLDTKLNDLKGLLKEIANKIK
T2 sequence (O75762 whole entry): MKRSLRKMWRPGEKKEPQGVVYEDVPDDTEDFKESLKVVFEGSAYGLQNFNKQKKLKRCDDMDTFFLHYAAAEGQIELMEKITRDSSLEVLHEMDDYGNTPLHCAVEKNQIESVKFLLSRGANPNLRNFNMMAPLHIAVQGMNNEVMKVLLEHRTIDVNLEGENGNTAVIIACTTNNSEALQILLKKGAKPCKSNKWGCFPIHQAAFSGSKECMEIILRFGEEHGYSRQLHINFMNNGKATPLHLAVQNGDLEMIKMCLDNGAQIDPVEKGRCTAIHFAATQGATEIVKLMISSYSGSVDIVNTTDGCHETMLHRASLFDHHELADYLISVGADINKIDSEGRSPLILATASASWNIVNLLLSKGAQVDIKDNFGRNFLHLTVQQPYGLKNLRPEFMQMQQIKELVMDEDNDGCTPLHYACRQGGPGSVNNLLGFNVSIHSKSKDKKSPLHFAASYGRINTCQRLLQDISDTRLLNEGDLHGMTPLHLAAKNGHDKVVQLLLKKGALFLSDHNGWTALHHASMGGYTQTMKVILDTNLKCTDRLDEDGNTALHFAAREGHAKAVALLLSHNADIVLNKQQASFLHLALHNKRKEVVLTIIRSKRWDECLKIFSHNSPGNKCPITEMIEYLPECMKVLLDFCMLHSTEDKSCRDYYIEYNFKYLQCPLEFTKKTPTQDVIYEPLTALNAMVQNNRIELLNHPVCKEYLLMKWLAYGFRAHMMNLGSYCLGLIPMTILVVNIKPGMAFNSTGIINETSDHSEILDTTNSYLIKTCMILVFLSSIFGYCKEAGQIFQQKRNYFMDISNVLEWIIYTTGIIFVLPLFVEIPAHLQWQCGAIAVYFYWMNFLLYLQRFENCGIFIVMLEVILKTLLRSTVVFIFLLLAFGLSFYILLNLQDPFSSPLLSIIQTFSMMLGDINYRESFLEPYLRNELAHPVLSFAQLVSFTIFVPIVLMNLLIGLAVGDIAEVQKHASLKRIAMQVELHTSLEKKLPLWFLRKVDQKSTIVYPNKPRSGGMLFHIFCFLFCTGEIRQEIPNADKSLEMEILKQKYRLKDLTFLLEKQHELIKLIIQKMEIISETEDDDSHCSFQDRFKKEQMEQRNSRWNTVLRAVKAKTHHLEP
Transient receptor potential cation channel subfamily M member 8 (Rattus norvegicus, UniProt Q8R455), sequence (Q8R455 whole entry): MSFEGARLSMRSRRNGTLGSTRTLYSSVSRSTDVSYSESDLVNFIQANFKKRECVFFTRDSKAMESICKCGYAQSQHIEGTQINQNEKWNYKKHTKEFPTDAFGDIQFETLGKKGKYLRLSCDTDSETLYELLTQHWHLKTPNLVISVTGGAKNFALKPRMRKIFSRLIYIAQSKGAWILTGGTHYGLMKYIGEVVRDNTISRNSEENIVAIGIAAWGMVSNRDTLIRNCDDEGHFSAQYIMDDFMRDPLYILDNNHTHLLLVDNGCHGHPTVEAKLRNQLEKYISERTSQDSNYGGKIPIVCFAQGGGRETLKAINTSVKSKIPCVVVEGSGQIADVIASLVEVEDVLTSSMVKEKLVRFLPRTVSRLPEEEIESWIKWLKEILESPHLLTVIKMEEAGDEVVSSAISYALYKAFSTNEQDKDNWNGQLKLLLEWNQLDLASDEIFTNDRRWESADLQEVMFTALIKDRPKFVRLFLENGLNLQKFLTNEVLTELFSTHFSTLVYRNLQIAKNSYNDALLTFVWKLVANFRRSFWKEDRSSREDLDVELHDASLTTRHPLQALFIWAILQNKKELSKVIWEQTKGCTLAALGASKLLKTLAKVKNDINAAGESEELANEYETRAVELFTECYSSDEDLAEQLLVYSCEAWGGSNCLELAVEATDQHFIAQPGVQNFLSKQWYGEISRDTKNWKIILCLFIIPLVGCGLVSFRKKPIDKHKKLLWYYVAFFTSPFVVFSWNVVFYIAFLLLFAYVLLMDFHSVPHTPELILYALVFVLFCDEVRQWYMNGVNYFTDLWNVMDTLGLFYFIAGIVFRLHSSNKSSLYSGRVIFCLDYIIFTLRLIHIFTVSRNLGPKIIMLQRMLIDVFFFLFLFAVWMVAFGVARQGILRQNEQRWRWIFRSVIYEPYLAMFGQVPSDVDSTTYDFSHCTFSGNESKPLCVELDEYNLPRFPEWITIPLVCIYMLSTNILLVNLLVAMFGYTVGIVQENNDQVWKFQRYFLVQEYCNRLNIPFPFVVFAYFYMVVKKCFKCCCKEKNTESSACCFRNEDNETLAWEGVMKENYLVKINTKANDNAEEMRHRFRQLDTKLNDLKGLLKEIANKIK

Q: `C[C@@H]1C(=O)N(C[C@@H](Cc2ccccc2)N(Cc2ccccc2)Cc2ccccc2)[C@]1(Cc1ccccc1)C(=O)OCc1ccccc1` was tested. Which IC50 [1] did it give?
A: The IC50 was 300 nM.

Q: And the IC50 [2]?
A: The IC50 was 300 nM.

Q: With `c1cc2c(cc1[C@H]1OC[C@H]3[C@@H]1CO[C@@H]3c1ccc3c(c1)OCO3)OCO2` [SESAMIN] as the molecule, how does the IC50 [3] read?
A: Its IC50 is 9780 nM.

Q: With `C[C@H]1C(=O)N(C[C@@H](Cc2ccccc2)N(Cc2ccccc2)Cc2ccccc2)[C@@]1(Cc1ccccc1)C(=O)OCc1ccccc1` as the molecule, how does the IC50 [1] read?
A: Its IC50 is 20 nM.

Q: And the IC50 [2]?
A: The IC50 was 20 nM.

Q: And the IC50 [4]?
A: The IC50 was 50 nM.

Q: How did the EC50 [5] turn out when `C[C@@H](N)[C@@H](O)CCCCCCCCCCCCCCCCCCCCCCCC[C@H](O)[C@@H](C)N` was run?
A: Its EC50 is 2600 nM.

Q: `C[C@H]1[C@H](F)C[C@@H](C(=O)NCc2cc(-c3cnc(C(F)(F)F)nc3)ncc2C(F)(F)F)N1S(=O)(=O)c1ccc(F)cc1` was tested. Which IC50 [6] did it give?
A: The IC50 was 1.7 nM.

Q: What does the source list for `O=C(N[C@H](Cn1nccn1)C(F)(F)CO)c1cccc(F)c1-c1cc(-c2ccc(F)cc2)[nH]n1`?
A: IC50 [7]: 22.4 nM; IC50 [8]: 25.3 nM

Q: How did the EC50 [9] turn out when `O=C1NC(c2cccc([N+](=O)[O-])c2)=CCN1c1ccccc1O` [ICILLIN] was run?
A: The EC50 was 5 nM.

Q: `C[C@H]1C(=O)N(C[C@H](Cc2ccccc2)N(Cc2ccccc2)Cc2ccccc2)[C@@]1(Cc1ccccc1)C(=O)OCc1ccccc1` was tested. Which IC50 [1] did it give?
A: Its IC50 is 700 nM.

Q: For `C[n+]1cc2c3c(ccc2c2ccc4cc5c(cc4c21)OCO5)OCO3`, which EC50 [10] is on record?
A: The EC50 was 40 nM.

Q: `C[C@@H]1C(=O)N(C[C@H](Cc2ccccc2)N(Cc2ccccc2)Cc2ccccc2)[C@]1(Cc1ccccc1)C(=O)OCc1ccccc1` was tested. Which IC50 [1] did it give?
A: The IC50 was 3100 nM.

Q: Which IC50 [11] does the source give for `CCN(c1cccc(C)c1)S(=O)(=O)c1nnc(NC(=O)c2ccccc2)s1` here?
A: The IC50 was 130 nM.

Q: `COc1ccc(OC)c(NC(=O)c2nnn(Cc3ccc(Br)cc3F)c2N)c1` was tested. Which EC50 [12] did it give?
A: Its EC50 is 45 nM.
